Results from patent US20180206501A1, “CONTROLLING DISEASES AND INSECTS IN PLANTS” (priority 2017, published 2018).

How the values were obtained:
[1] = Appearance of the solution in water pH = 10 at 24 hours; type: physicochemical; conditions: 50% stock plus water pH = 10
[2] = tested on: Escherichia coli (E. coli); assay: Microbial testing, standard pour plate count; type: cell-based
Method: The purpose of this study was to evaluate the effectiveness of test materials labeled #6, #7 and #8, in killing or reducing Escherichia coli (E. coli). The standard pour plate count test method was used to evaluate Percent Reduction of Colony Forming Units (CFU).
The E. coli (lot number 168756) was purchased from Quanti-Cult™ and is derived from original ATCC® stock cultures. They are received dehydrated. A viable streak plate was colonized from this culture. One colony was transferred to 5 ml of sterile Tryptic Soy Broth (lot # A3303) and incubated overnight. Antimicrobial activity was determined by comparing results from the test sample to simultaneously run controls or from the T0. The concentration of the suspension was determined using serial dilution and plate counts to determine the amount of Colony Forming Units (CFU's)/ml of suspension.
The materials tested in this study are described in the Purpose section. Sterile 0.3 mM KH2PO4 buffer was inoculated to a concentration of ˜1.0-3.0×10^5 CFU/ml. A To plate originated from the inoculated buffer for quantification and prepared 1:100 dilution to insure that viable inoculum was applied in the test system. The test materials were formulated in 20×150 […] test tubes. Aliquots of 0.3 grams of each of the materials (#6, #7 and #8) were added to sterile test tubes. […]

Cercospora = assay: Laboratory over-spray of sugar beet leaf cultures on agar incubation plates; type: cell-based; conditions: L-1 and Control leaf cultures; 0.5% solution with 5211 surfactant in water; 24 hours incubation
Method: The initial leaf cuttings from L-1 to L-3 were used for additional evaluations. […] All of the leaves were very green, showing no signs of Cercospora. When the leaves were cultured and incubated (three plates per sample), the plate counts on all of the samples were too numerous to count (TNTC) indicating signs of Cercospora infection.
The control sample was taken from a known infected control sample. In addition to the normal culturing process, leaf samples from L-1 and the Control were treated in the laboratory. This involved placing the leaf culture onto the agar incubation plate, over spraying the plate with a 0.5% solution Ztrex 72 and 5211 surfactant in water. The plates were further incubated for 24 hours.
Our Control sample was obtained from Michigan Sugar Company, Bay City, Mich. and was used for all of the initial lab studies.

SMILES | Solution @ 24 hours [1] | Application, microbial kill [2] | Plate count ([2]; 0.3 grams in 5 ml Tryptic Soy Broth, 1×10^5 CFU E. coli, 48 hours, T0 9.6×10^4 CFU/ml) [CFU/ml] | Evidence of Cercospora on the incubation plate (Cercospora)
CO[Si](CCc1ccc(S(=O)(=O)Cl)cc1)(OC)OC [#8, 2-(4-chlorosulfonylphenyl)ethyltrimethoxysilane] | Clear | 99.99 | 16 | 
CCCCCCCCCCCCCCCCCC[N+](C)(C)CCC[Si](OC)(OC)OC.[Cl-] [Ztrex 72, (CH3O) Si (CH2)N^+ (CH3)2 (C18H37) Cl^−] |  |  |  | no evidence of Cercospora
